Assay results reported in a melting point compilation (Tetko et al.; mined from patent text by program, amines drawn as free bases though some values may be those of a salt).

melting point | Compound
168 °C | CCSc1nc(=O)[nH]cc1F
117 to 120 °C | CC(C)=CCOC(C)C1CC=C2C3=C(CCC21C)C1(C)CCC(O)C(C)(C)C1CC3 (stereo not given)
113 to 115 °C | Oc1cccc(C2CCCN2Cc2ccccc2)c1 (stereo not given)
145 °C | Nc1nc2cc(Cl)c(Cl)cc2n1C1OC(CO)C(O)C1O (stereo not given)
142 to 144 °C | O=C1N(CC2CCOCC2)c2ccccc2C12COc1cc3c(cc12)OCO3 (stereo not given)
142 to 144 °C | CCCc1nc2c(N)nc3cc(OCCCN4CCCS4(=O)=O)ccc3c2n1CC(C)C
164 °C | O=C(O)C(=O)c1ccc(OCCOc2ccc3ccccc3c2)c([N+](=O)[O-])c1
140 to 141 °C | CCCCCCCCC(=O)Nc1cc([N+](=O)[O-])ccc1O
140 to 142 °C | CCN(CC)CCNC(=O)c1cccc2c(=O)c3cc(I)ccc3[nH]c12
299 to 300 °C | Fc1ccc2c(c1)Oc1ccccc1-c1nc(S)[nH]c1-2
166 to 169 °C | O=C(O)C1CC(c2ccccc2)=NN1C(=O)CP(=O)(O)CCCCc1ccccc1 (single isomer, unassigned; (+))
122 to 123 °C | CC(C)(C)OC(=O)NC(C)(C)c1ccc(C(=O)CC#N)cc1
106 to 110 °C | CC(C)c1nn2ccccc2c1C(=O)C1CCCC1
202 to 203 °C | CCCc1nn(C)c2c(=O)[nH]c(-c3cc(S(=O)(=O)N4C[C@@H](C)N[C@@H](C)C4)ccc3OCC)nc12
224 to 233 °C | O=c1[nH]c2ccc(C3=NOC(CN4CCC(Cc5ccc(F)cc5)C(O)C4)C3)cc2o1 (stereo not given)
172 to 173 °C | CC(C)c1nc(-c2ccc(F)cc2)c(-c2ccc(F)cc2)n1/C=C/[C@@H](O)C[C@@H](O)CC(=O)O
168 to 169 °C | O=C(O)C(=O)c1ccc(OCCOc2ccc3ccccc3c2)c(F)c1
197 to 199 °C | O=C(O)c1ccc2cc(OCCN3CCN(c4ccc(Cl)cc4)CC3)ccc2c1
115 °C | COc1cccc2c1CC(N(CCCc1c[nH]c3ccc(F)cc13)CC1CCC1)CO2 (stereo not given)
211 °C | O=C(Nc1ccccc1Sc1c(Cl)cncc1Cl)N[C@@H](Cc1ccc(NC(=O)c2c(Cl)cncc2Cl)cc1)C(=O)O
225 to 228 °C | O=[N+]([O-])c1ccc2[nH]c(C(F)(F)F)c([N+](=O)[O-])c2c1

melting point | Compound
165 to 167 °C | C/C(NCC(C)C)=C(\C#N)C(N)=S
133 to 135 °C | FC(F)(F)c1nnc2c(Cl)nc3ccc(Cl)cc3n12
105 to 106 °C | Cc1cn(C(C)(C)C(N)=O)nc1-c1ccccc1
134 to 136 °C | CCOC(=O)C(=CNc1cc(C)no1)C(=O)OCC
116 to 118 °C | Cc1c(SCCCSc2ccncc2)ccnc1CSc1ccncc1
166 to 167 °C | O=c1[nH]ccn1-c1ccc(F)cc1
195 to 198 °C | COc1ccc2c(n1)C1(CO2)C(=O)N(Cc2ncccc2C(F)(F)F)c2ccccc21 (stereo not given)
156 to 158 °C | CN1CCN(C(=O)C(CC(=O)N2Cc3cscc3C2)Cc2ccccc2)CC1 (stereo not given)
234 to 235 °C | COCC(=O)N[C@H]1CC[C@H](Nc2nccc(-n3nnc4ccccc43)n2)CC1
100 to 101 °C | CN(C)Cc1nc(CSCCNC(=C[N+](=O)[O-])NCC(O)c2ccccc2)cs1 (stereo not given)
198 to 200 °C | COC(=O)Cn1c(-c2ccccc2Cl)nc2cccnc21
153 to 158 °C | COc1ccc(F)cc1-c1cccc(-n2cnc(-c3nc(C)no3)c2)c1
118 to 120 °C | CC(C)(C)OC(=O)NC(Cc1ccccc1)CC(O)C(Cc1ccccc1)NC(=O)OCc1cncs1 (stereo not given)
95 to 97 °C | Cc1ccc(NC(=O)C(C)C)s1
117 to 119 °C | Cc1ccc(S(=O)(=O)N(Cc2cc(C(C)(C)C)c(O)c(C(C)(C)C)c2)c2cccnc2Cl)cc1
177 to 184 °C | COC(=O)C1CCC2C3CCC4CC(O)C(OC)CC4(C)C3C(N)CC12C (stereo not given)
200 to 202 °C | Cc1nc(-c2ccc(OCC(C)C)c(Br)c2)sc1C(=O)O
58 to 59 °C | CCNc1ccc(F)cc1OCc1ccccc1
193 to 194 °C | O=C(O)c1snc(-c2cc(C(F)(F)F)cc(C(F)(F)F)c2)c1C(=O)O
260 to 262 °C | CC(C)c1nccn1Cc1ccc2c(c1)Cc1c(-c3ccsc3)n[nH]c1-2
101 to 102 °C | Cc1cc(C)c(C(CO)c2ccc(C(C)C)cc2)c(O)c1C (stereo not given)

melting point | Compound
59 to 62 °C | CCCS(=O)(=O)N(COC)C(=O)c1nc(OC)cc(OC)n1
152 to 153 °C | CCOc1nn(CCO)cc1C(=O)NCc1ccc(Cl)cc1Cl
199 to 201 °C | O=[N+]([O-])c1ccc(NS(=O)(=O)c2ccc(Cl)c(Cl)c2)c(Cl)c1
160 to 161 °C | Cc1cc(O)ccc1C(=O)O
> 300 °C | Cn1cc(CO)c(=O)c2ccc(Br)cc21
129 to 130 °C | O=C(c1cc2ccccc2s1)C1CCN(CCc2ccccc2)CC1
271 to 272 °C | ON=C1CCCc2c1c1cccc3c1n2CC3
194 to 195 °C | CCCCCCCCCCCCc1ccc(S(=O)(=O)Nc2nnc(CC(=O)O)s2)cc1
> 230 °C | CSc1nn2c(N)c3c(nc2c1S(=O)(=O)c1ccccc1)CCC3
75 to 77 °C | O=COCc1ccc2c(c1)C(C(Cl)(Cl)Cl)OC(C(Cl)(Cl)Cl)O2 (stereo not given)
168 to 170 °C | CCNc1nc2c(N)nc(C)c(C)c2n1CC(C)C
104 to 106 °C | CC(=O)NC(C)(C)c1ccc(CN2CCN(c3ccc(F)cc3)CC2)cc1
201 to 203 °C | COc1ccc(S(=O)(=O)N2C(=O)C(OCC(=O)N3CCN(c4ccncc4)CC3)(c3ccccc3OC(C)C)c3cc(Cl)ccc32)c(OC)c1 (stereo not given)
214 to 217 °C | COc1ccccc1C(=O)c1[nH]c2cc(Cl)ccc2c1CC(=O)O
137 °C | CC(C)(C)c1nn(-c2c(Cl)cc(C(F)(F)F)cc2Cl)c(N)c1Cl
191 to 193 °C | COc1ccc(Br)c2c1C1C(=O)NC(=O)C1CC2 (stereo not given)
167 to 169 °C | CC(=O)N1CCN(c2c(-c3ccccc3)sc3ccccc23)CC1
220 to 222 °C | CC(O)c1c(-c2ccc(F)cc2)cc2c3c1ccn3C(=O)CNC2 (stereo not given)
149 to 151 °C | COCc1ncccc1CN(CCn1ccc2occc2c1=O)Cc1ccc2c(c1)NC(=O)C(C)(C)C(=O)N2CC(C)C
119 to 121 °C | N#CCCCCn1c(=O)c2ccccc2n(CCCCN2CCC(OC(c3ccccc3)c3ccccc3)CC2)c1=O
176 to 177 °C | Cc1c(NC(=O)c2ccc(-c3ccc4c(c3)CCO4)cc2)ccc2cc(CN3CCCC3)cnc12

Compound | melting point
CNCc1nc(-c2ncn3c2[C@@H]2CCN2C(=O)c2cc(F)ccc2-3)no1 | 155 to 160 °C
Cc1cc(Cl)cc(C(=O)NNCC(=O)NCc2ccccc2)c1NC(=O)c1cc(Br)nn1-c1ncccc1Cl | 120 to 121 °C
COc1ccc2c(C)c(C(=O)C34CC5CC(CC(C5)C3)C4)oc2c1 | 173 to 175 °C
CN(SC1CCCCCCC1Cl)C(=O)Nc1ccc(Cl)c(Cl)c1 (stereo not given) | 90 to 91 °C
CC12CC(c3ccc(OS(=O)(=O)C(F)(F)F)cc3)C3C4CCC5(CC4=CCC3C1CCC2=O)OCCO5 (stereo not given) | 208 to 210 °C
O=C(NC1CCOC1=O)c1cc2c(n(CC3CCCCC3)c1=O)CCCCCC2 (stereo not given) | 136 to 140 °C
COC12CC(C3(c4cncc(Br)c4)N=NCS3)CN(C)C1Cc1cn(C)c3cccc2c13 (stereo not given) | 131 to 137 °C
